The text below walks through data of patent US9198979B2, “Thiazolidine linker for the conjugation of drugs to antibodies” (Philogen S.P.A., priority 2010, dated 2015).

Read-outs that look alike come from different tables or passages of the source.

For one series, the system named is HL60 cells. Put plainly: In vitro toxicity assay (MTS cell proliferation assay), HL60. It counts as cell-based, human. The note with it: HL60, ~72 hours. Here is the method: (§1) For the in vitro toxicity assay 30000 cells/well (final volume 100 μl) were seeded in a 96 well plate with a defined peptide dilution (by adding 1.5 μl of peptide solution to 500 μl of cell suspension) and incubated at 37° C. in 5% CO2.
(§2) After ˜72 hours, cell viability was measured using the “Cell Titer 96®Aqueous One Solution Cell Proliferation Assay” (Promega), performed according to the manufacturers instruction. Briefly: 20 μl of MTS solution were added to each well, the plate was then incubated at 37° C. for 2 hour. The read out of the assay is the absorbance at 490 nm.
(§3) The experiments were then extended to F9 and HL60 cells in the same manner.
For orientation: Formazan colour is commonly taken as a measure of viable cells.

The next series relates to HEK293T cells. Nature of the series: In vitro toxicity assay (MTS cell proliferation assay), HEK293T. It counts as cell-based, human. The note with it: ~72 hours. Here is the method:
HEK293T cells were grown in RPMI (Gigbo-Invitrogen) medium supplemented with 10% FCS and antibiotics and maintained at 37° C. in 5% CO2.
as §1, §2

A further series concerns F9 teratocarcinoma cells. Nature of the series: In vitro toxicity assay (MTS cell proliferation assay), F9. The class given is cell-based, murine. Conditions: F9, ~72 hours. The procedure:
as §1, §2, §3
Cem-CH2—SH cell killing ability was evaluated by cytotoxicity assays: one non-tumor cell line (human embryonic kidney cells, HEK 293T) and two tumor cell lines, murine F9 teratocarcinoma cells (F9) and human promyelocytic leukemia cells (HL60), were incubated over 3 days with different concentrations of non-modified cemadotin and the derivative Cem-CH2—SH (FIG. 20).

With Cemadotin, the “cytotoxicity (IC50)” value in the series on HL60 cells, in the series on HEK293T cells and in the series with F9 teratocarcinoma cells was “sub-nanomolar” each time.

As to “BSA-fluorescein conjugate: BSA conjugated to carboxyfluorescein by the thiazolidine linker”, the “t1/2 thiazolidine (fluorescein release half-life)” value amounted to 37 h (pH 6.6) and 44 h (pH 7.4).
